Experiments:
JAK1 [1] = biological target: T1, JAK1 (Homo sapiens, UniProt P23458); assay: JAK LanthaScreen Kinase Assay (TR-FRET), JAK1 in vitro enzyme assay; type: biochemical; conditions: ATP 20.0 μM; n=6
Text: JAK1, JAK2 and JAK3 In Vitro Enzyme Assays
The JAK LanthaScreen™ Kinase Assay (Invitrogen) is used to determine the ability of test compounds to inhibit JAK1, JAK2 and JAK3 kinase activity. These are TR-FRET assay formats that use long-lifetime terbium labeled antibody as the donor species and GFP-STAT1 as the acceptor species. Use the TR-FRET ratio to monitor JAK kinase activity where an increase in phosphorylation of the GFP-STAT1 results in an increase in the TR-FRET ratio. Perform the kinase reaction using a 12.5 μl reaction volume in shallow black 384-well Proxiplate. Add reagents to obtain final reaction conditions of […] HEPES pH, 1.76 mM Triton X-100, ATP (20.0 μM for JAK1 and JAK3 or 5 μM for JAK2) enzyme assays, 10.0 mM MgCl2, 1 mM EGTA and 0.01% Brij-35, 0.05 mM GFP-STAT1, 14 nM JAK1 enzyme for JAK1, 1.0 nM for JAK2 or 2.5 nM for JAK3 enzyme assays, and 4% DMSO and serial dilutions of test compound (diluted 1:3 from 20,000 to 1 nM). Following ATP/GFP-STAT1 addition, centrifuge the assay plates for 1 minute at 1000 revolutions per minute (RPM). Allow the plates to incubate at RT for 60 minutes and then add 12.5 μl of a stopping buffer containing 20 mM EDTA, 2 nM Terbium-anti-phosphorylated Signal Transducers and Activators of Transcription [phosphorylation Tyrosine 701 amino acid] […]

JAK1 [2] = biological target: T1, JAK1; assay: Phospho-STAT3 (Tyr705) ACUMEN H1975-JAK1 cell-based assay; parameters: endogenous in cells; conditions: H1975 NSCLC cells, 4 hr; n=1; read-out: IC50, pSTAT3 (Tyr705) in H1975 cells
Method: Phospho-STAT3 (Tyr705) ACUMEN Protocol—H1975-JAK1 Cell-Based Assay
An H1975-JAK1 cellular assay is used to confirm the potency of test compounds in NSCLC cells in which the STAT3 pathway is activated by autocrine IL-6 loop. […]
On Day 2, perform the following steps sequentially: wash 2 times with 100 μL PBS; add 50 μL of secondary antibody (1:1000; Ab2° goat anti-mouse IgG); incubate for 1 hour at RT in the dark; wash 2 times with 100 μL PBS; add 100 μL of Propidium Iodide (1:1000 in PBS from commercial solution) containing RNAse (50 μg/mL in PBS); seal plates with transparent film and incubate at RT for 2 hours before reading; read on Acumen Explorer (set parameter based on positive and negative well). […]

T1 sequence (P23458 whole entry): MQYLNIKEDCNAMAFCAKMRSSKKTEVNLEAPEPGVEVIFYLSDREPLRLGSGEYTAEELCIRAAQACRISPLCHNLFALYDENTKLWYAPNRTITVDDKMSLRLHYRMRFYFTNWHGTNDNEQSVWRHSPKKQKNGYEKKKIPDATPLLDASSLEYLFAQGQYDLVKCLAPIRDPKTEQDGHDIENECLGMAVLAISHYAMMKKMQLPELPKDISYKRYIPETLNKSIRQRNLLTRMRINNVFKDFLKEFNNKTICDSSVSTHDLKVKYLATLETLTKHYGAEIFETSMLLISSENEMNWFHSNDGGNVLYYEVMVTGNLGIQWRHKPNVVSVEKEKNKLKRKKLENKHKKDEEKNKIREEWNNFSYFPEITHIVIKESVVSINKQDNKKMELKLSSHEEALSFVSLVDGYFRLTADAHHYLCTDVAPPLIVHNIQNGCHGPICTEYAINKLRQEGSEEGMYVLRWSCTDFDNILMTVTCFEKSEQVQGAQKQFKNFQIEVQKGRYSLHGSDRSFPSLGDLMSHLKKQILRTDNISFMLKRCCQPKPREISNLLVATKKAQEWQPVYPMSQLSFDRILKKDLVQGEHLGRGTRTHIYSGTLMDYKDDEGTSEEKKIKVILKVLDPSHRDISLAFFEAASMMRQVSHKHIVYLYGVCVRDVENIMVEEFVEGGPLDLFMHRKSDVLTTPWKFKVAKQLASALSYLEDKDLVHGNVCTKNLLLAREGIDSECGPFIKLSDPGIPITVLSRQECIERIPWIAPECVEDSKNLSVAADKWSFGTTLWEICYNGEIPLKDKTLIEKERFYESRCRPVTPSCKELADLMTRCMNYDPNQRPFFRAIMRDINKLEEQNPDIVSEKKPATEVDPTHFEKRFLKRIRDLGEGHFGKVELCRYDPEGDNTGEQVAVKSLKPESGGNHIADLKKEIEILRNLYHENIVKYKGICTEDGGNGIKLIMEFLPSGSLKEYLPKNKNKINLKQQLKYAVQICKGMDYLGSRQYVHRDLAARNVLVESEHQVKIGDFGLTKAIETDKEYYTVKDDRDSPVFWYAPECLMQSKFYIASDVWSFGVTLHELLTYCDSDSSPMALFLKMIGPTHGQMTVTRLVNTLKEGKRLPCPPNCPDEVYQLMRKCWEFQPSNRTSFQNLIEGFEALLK

## Cc1cc(Nc2cc(O[C@H]3CC[C@@H](NC[C@@H](O)C(F)(F)F)CC3)cc3c2ncn3C)nn1C [Example 1, (2R)-3-{[cis-4-({4-[(1,5-Dimethyl-1H-pyrazol-3-yl)amino]-1-methyl-1H-benzimidazol-6-yl}oxy)cyclohexyl]amino}-1,1,1-trifluoropropan-2-ol]
JAK1 [1]
  IC50: 0.004 ± 0.0008 µM
JAK1 [2]
  IC50: 0.297 µM
